The results in this text go back to PubChem BioAssay (NCI).

Common to all, as to test: NCI tumour cell line growth inhibition, 48 h
The test system of experiment [1] is EKVX NSCLC.
Experiment [2] has as its system HT29 colon.
Experiment [3] relates to SW-620 colon.
The test system of experiment [4] is RPMI-8226 leukemia.
In experiment [5] the test system is HCT-116 colon.
The test system of experiment [6] is SF-539 CNS.
Experiment [7] concerns MDA-MB-231 breast.

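Values below derive from 48-hour exposures of cells grown in 96-well plates, with endpoints linearly interpolated between the two concentrations bracketing the appropriate inhibition level. At the TGI there is no net growth.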

In the case of `O=C(N[C@H]1CCC[C@H]1C(=O)Nc1ccc(C(F)(F)F)cc1)OCc1ccccc1`, the TGI in experiment [1], in experiment [2], in experiment [3], in experiment [4], in experiment [5] and in experiment [6] was above 100 µM in each case. In experiment [7], this compound yielded a TGI above 100 µM.
For the compound `O=C(/C=C/c1ccccc1)Oc1cccc(Br)c1`, the TGI was above 100 µM in experiment [1]; above 100 µM in experiment [2]; above 100 µM in experiment [3]; 40.2 µM in experiment [4]; above 100 µM in experiment [5]; above 100 µM in experiment [6]. In addition, the TGI in experiment [7] is above 100 µM.
Take `COc1cc([C@@H]2c3cc4c(cc3[C@@H](c3c(O)cc(O)c5c3O[C@H](c3ccc(O)c(O)c3)[C@H](OC(=O)c3cc(O)c(O)c(O)c3)C5)[C@H]3COC(=O)[C@H]23)OCO4)cc(OC)c1O`: the TGI in experiment [1] was above 100 µM; in experiment [2], 65.3 µM; in experiment [3], above 100 µM; in experiment [4] it was above 100 µM; in experiment [5], above 100 µM; in experiment [6], 60.1 µM. This compound yielded a TGI in experiment [7] above 100 µM.
